Test results published in patent US10227347B2, “Purinyl-N-hydroxyl pyrimidine formamide derivative, preparation methods and uses thereof” (Guizhou Bailing Group Pharmaceutical CO., LTD., priority 2015, dated 2019).
Read-outs that look alike come from different tables or passages of the source.

What was measured:
HDAC1 = biological target: T1, HDAC1 (Homo sapiens, UniProt Q13547); test: In vitro HDAC1 enzymatic activity inhibition (Lys-Ac-AMC substrate); assay type: biochemical
T1 construct: purchased BPS Bioscience
How it was run: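 Fluorogenic Lys-Ac-AMC deacetylation with trypsin development in modified Tris buffer pH 7.0; compound preincubated with enzyme 15 min at ambient temperature before substrate addition. Final HDAC1 6 nM, trypsin 0.05 μM, Ac-peptide 8 μM. IC50 from four-parameter fit of % inhibition versus concentration.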

PI3Kα = biological target: T2, PI3Kα (Homo sapiens, UniProt P42336); test: PI3Kα activity inhibition (Kinase-Glo); assay type: biochemical
T2 construct: purchased Invitrogen PV4788
How it was run: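 Kinase-Glo luminescence read-out of remaining ATP after PI3K reaction with PIP2 and ATP substrates in 50 mM HEPES pH 7.5, 3 mM MgCl2, 1 mM EGTA, 100 mM NaCl, 0.03% CHAPS, 2 mM DTT. Incubated at ambient temperature, 1 h for PI3Kα, 2 h for PI3Kδ. IC50 from four-parameter fit of % inhibition versus concentration.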

PI3Kβ = biological target: T3, PI3Kβ (Homo sapiens, UniProt P42338); test: PI3Kβ activity inhibition (ADP-Glo); assay type: biochemical; settings: Table 1, graded
T3 construct: purchased Millipore 14-603-K
Method: (§1) Detecting the inhibition capability of the compound to PI3Kβ and PI3Kγ activities with ADP-Glo (purchased from Promege Company; Catalog No.: v9102/3). […] The reaction system also comprises substrates as PIP2 and ATP. The reaction buffer system comprises 50 mM HEPES, 3 mM MgCl2, 1 mM EGTA, 100 mM NaCl, 0.03% CHAPS and 2 mM DTT. The pH value of the reaction buffer is 7.5. […] Mixing the system evenly for incubation under ambient temperature for 1 h; getting a new 384 well plate and transferring 5 μL reaction liquid from the each well of original 384 well plate to the corresponding wells of the new 384 well plate; adding 5 μL ADP-Glo which has been preheated to ambient temperature into each new reaction well to terminate the reaction; oscillating it slowly in dark place for 40 min's incubation after it is mixed evenly; adding 10 μL testing liquid in each reaction well, oscillating it for 1 min to mix evenly and incubating it for 1 h, then measuring the fluorescence intensity with a microplate reader and analyzing the result data with the software GraphPad Prism.
(§2) Calculating the value of IC50 as per the formula: Y=background data+(top data−background data)/(1+10^((Log IC50−X)*rate of curve))
(§3) Where, Y refers to the inhibition ratio (%) and X refers to the compound concentration.

PI3Kδ = biological target: T4, PI3Kδ (Homo sapiens, UniProt O00329); test: PI3Kδ activity inhibition (Kinase-Glo); assay type: biochemical; settings: Table 1, graded
T4 construct: purchased Millipore 14-604-K
Method: Detecting the inhibition capability of the compound to PI3Kα and PI3Kδ activities with Kinase-Glo (purchased from Promege Company; Catalog No.: V3771). […] The reaction system also comprises substrates as PIP2 (4, 5-diphosphoinositide, purchased from Life Technologies Company) and ATP (triphosadenine, purchased from Sigma Company). The reaction buffer system comprises 50 mM HEPES (4-hydroxyethylpiperazine ethane sulfonic acid), 3 mM MgCl2, 1 mM EGTA (ethylene glycol bis(2-amino ethylether)quadrol), 100 mM NaCl, 0.03% CHAPS (3-[3-(cholamidopropyl)dimethylamino]-1-propanesulfonic acid), 2 mM DTT (dithiothreitol). The pH value of the reaction buffer is 7.5. […] Mixing the system evenly for incubation under ambient temperature (for 1 h in PI3Kα test and for 2 h in PI3Kδ test). After incubation, adding 10 μL Kinase-Glo which has been preheated to ambient temperature into each reaction well to terminate the reaction; shaking it in dark place for 15 min after it is mixed evenly, then measuring the fluorescence intensity with a microplate reader and analyzing the result data with the software GraphPad Prism.
as §2, §3

PI3Kγ = biological target: T5, PI3Kγ (Homo sapiens, UniProt P48736); test: PI3Kγ activity inhibition (ADP-Glo); assay type: biochemical; settings: Table 1, graded
T5 construct: purchased Invitrogen PR8641C
Method: as §1, §2, §3

mTOR = biological target: T6, mTOR (Homo sapiens, UniProt P42345); test: mTOR activity inhibition (ULight-4E-BP1 peptide); assay type: biochemical; settings: Table 1, graded
T6 construct: purchased Millipore 14-770
Method: mTOR protein is purchased from Millipore Company (Catalog No.: 14-770). The reaction buffer system comprises 50 mM HEPES, 10 mM MgCl2, 1 mM EGTA, 3 mM […], 0.01% Tween-20 (purchased from Chengdu Kelong Chemical Regent Factory) and 2 mM DTT. The pH value of the reaction buffer is 7.5. Preparing 10 μL reaction system in corresponding wells of the 384 well plate, which contains the compositions as: the compound with designed concentration (or blank control), mTOR protein (with the concentration of 2.5 nM), ULight-4E-BP1 (containing the 37th and the 46th threonine residues, Thr37/46) peptide (purchased from PE Company, Catalog No.: TRF0128-M) and ATP substrates (ULight-4E-BP1 peptide, with the concentration of 50 nM and ATP, with the concentration of […]). Mixing it evenly for incubation under ambient temperature for 1 h; adding 10 μL testing liquid containing EDTA (ethylenediaminetetraacetic acid) and Eu-anti-phosphorylation-4E-BP1 (Thr37/46) antibody (purchased from PE Company, Catalog No.: TRF0216-M) into the reaction wells (after the testing liquid is added, the concentration of EDTA is 8 mM and the concentration of Eu-phosphorylation-4E-BP1 antibody is 2 nM); mixing it evenly and incubating it for 1 h under ambient temperature, then measuring the fluorescence intensity with a microplate reader and analyzing the result data with the software GraphPad Prism.
as §2, §3

[1] = tested on: MV4-11 cells (acute myeloid leukemia); test: Cell proliferation inhibition, MV4-11 (cck-8); assay type: cell-based; settings: Homo sapiens
Method: (§4) The tumor cell lines are purchased from American Type Culture Collection (ATCC) and cultivated to the status of logarithmic growth as per the cultural method recommended by ATCC. The cells in logarithmic phase are spread on a 96 well plate as per 2000-3000/well; as for anchorage-dependent cells, the compound should be added in the test wells at certain concentration for incubation for 96 h after cell adherence. Determining cell proliferation activities with method MTT for tumor cells representing solid tumor model and with method cck-8 for tumor cells representing hematologic tumor model, and analyzing the result data with the software GraphPad Prism.
(§5) Calculating the value of IC50 as per the formula: Y=background data+(top data−background data)/(1+10^((Log IC50−X)*rate of curve)). Where, Y refers to the inhibition ratio (%) and X refers to the compound concentration.

[2] = tested on: hct116 cells (colon cancer); test: Cell proliferation inhibition, hct116 (MTT); assay type: cell-based; settings: Homo sapiens, HCT-116
Method: as §4, §5

[3] = tested on: A2780s cells (ovarian cancer); test: Cell proliferation inhibition, A2780s (MTT); assay type: cell-based; settings: Homo sapiens
Method: as §4, §5

[4] = tested on: human breast cancer MDA-MB-231 subcutaneous tumor; test: Subcutaneous tumor model, human breast cancer MDA-MB-231; settings: 30 mg/kg, once per 7 days, intraperitoneal
Method: Cell MM1S is cultured in RPMI1640 medium (HyClone) which contains 10% fetal calf serum (Hohhot Caoyuan Lvye Bioengineering Material Co., Ltd.) and 100 U/mL penicillin and streptomycin (Beyotime).
3) Inoculation, grouping and treatment: collecting cells in logarithmic phase under aseptic conditions and counting; diluting the single cell suspension with the medium containing neither fetal calf serum nor antibiotics to 1×10^7-8 cell/mL for standby. Mixing the cell suspension; injecting 100 μL of cell suspension (5×10^6-2×10^7 cells) subcutaneously with a 1 mL injector on the right side of the back of animals. Weeding out the animals with oversized and undersized tumor when the tumor grows to an average volume of about 120 mm^3 and grouping the qualified animals for treatment and drug administration. Refer to Table 7 for each grouping model and drug administration frequency. Measuring the weight of each model per 2 days and measuring the length and width of the tumor with a vernier caliper; killing the tested animals through cervical dislocation and peeling off their tumors for weight measuring and photographing. Then calculating the tumor inhibition ratio (%) and evaluating the inhibition intensity to tumor with such tumor inhibition ratio.

[5] = tested on: human breast cancer MCF-7 subcutaneous tumor; test: Subcutaneous tumor model, human breast cancer MCF-7; settings: 30 mg/kg, once per 7 days, intraperitoneal
[6] = Table 1, graded, read-out: HDAC1 IC50
[7] = read-out: inhibition value IC50 to the activity of HDAC1
[8] = Table 1, graded, read-out: PI3Kα IC50
[9] = 96 h incubation, read-out: Proliferation IC50, Acute myeloid leukemia MV4-11
[10] = 96 h incubation, read-out: Proliferation IC50, Colon cancer hct116
[11] = 96 h incubation, read-out: Proliferation IC50, Ovarian cancer A2780s
[12] = read-out: IC50 to proliferation of MV4-11 cells
[13] = read-out: IC50 to proliferation of hct116 cells

T2 sequence (P42336 whole entry, species assumed): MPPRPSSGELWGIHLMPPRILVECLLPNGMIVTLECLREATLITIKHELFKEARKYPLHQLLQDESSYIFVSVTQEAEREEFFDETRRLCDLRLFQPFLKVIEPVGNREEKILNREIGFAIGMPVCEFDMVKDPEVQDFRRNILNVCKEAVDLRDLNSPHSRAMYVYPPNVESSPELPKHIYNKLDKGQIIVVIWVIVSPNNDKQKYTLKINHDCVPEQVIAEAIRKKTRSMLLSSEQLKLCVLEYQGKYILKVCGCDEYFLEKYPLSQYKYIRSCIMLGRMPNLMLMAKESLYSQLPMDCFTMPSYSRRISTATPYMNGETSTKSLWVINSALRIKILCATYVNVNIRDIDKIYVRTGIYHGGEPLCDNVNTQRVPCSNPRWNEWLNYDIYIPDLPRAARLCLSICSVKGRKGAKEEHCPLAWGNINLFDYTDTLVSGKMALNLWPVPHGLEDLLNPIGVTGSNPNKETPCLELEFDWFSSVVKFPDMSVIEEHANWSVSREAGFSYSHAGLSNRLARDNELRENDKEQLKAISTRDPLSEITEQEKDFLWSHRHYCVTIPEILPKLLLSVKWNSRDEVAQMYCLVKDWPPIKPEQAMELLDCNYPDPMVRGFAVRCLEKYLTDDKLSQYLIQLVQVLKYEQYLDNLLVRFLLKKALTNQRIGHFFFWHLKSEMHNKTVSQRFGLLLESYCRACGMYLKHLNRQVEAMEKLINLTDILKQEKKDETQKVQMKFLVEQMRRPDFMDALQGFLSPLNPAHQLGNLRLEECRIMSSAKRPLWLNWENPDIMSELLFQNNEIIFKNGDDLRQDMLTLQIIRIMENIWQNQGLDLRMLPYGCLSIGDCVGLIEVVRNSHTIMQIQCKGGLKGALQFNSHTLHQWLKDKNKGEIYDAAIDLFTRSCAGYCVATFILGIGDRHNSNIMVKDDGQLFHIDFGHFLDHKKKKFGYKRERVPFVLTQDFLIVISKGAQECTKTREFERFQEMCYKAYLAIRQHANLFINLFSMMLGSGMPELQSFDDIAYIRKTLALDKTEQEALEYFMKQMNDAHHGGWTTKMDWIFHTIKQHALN
T2 sequence (P27986 whole entry partner, species assumed): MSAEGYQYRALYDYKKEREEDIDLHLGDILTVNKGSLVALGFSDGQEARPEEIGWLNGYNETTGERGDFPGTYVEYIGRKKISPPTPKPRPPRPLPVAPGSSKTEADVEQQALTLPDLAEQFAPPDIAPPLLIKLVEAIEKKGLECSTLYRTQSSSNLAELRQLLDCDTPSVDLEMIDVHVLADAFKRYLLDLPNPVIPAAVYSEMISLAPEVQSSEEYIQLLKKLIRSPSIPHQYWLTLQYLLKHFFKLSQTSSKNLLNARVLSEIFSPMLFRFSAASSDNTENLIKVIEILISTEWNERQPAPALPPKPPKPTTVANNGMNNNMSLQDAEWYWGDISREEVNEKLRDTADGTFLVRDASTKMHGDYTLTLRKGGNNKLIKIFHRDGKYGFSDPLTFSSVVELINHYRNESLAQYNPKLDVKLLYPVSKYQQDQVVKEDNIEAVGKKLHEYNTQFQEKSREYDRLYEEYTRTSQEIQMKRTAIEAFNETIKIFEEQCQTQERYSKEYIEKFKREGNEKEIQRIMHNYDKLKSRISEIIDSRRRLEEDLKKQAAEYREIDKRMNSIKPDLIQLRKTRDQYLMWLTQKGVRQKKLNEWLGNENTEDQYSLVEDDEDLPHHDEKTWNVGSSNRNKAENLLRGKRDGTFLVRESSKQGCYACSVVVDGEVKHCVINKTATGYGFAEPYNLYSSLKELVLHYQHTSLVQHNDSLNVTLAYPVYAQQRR
T1 sequence (Q13547 whole entry, species assumed): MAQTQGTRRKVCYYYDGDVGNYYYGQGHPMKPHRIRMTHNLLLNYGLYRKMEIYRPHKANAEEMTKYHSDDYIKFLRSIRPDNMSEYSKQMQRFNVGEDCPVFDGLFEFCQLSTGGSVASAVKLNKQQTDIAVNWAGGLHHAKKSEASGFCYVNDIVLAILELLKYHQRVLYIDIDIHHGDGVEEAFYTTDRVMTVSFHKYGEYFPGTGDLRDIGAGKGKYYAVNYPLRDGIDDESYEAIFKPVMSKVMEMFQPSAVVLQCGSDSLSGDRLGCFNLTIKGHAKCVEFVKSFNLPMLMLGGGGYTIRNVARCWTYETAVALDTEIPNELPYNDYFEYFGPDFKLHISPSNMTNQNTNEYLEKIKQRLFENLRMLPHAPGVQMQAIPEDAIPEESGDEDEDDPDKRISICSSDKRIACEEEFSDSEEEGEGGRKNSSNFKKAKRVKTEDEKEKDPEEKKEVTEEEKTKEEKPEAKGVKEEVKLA
T6 sequence (P42345 1362-2549 limits assumed): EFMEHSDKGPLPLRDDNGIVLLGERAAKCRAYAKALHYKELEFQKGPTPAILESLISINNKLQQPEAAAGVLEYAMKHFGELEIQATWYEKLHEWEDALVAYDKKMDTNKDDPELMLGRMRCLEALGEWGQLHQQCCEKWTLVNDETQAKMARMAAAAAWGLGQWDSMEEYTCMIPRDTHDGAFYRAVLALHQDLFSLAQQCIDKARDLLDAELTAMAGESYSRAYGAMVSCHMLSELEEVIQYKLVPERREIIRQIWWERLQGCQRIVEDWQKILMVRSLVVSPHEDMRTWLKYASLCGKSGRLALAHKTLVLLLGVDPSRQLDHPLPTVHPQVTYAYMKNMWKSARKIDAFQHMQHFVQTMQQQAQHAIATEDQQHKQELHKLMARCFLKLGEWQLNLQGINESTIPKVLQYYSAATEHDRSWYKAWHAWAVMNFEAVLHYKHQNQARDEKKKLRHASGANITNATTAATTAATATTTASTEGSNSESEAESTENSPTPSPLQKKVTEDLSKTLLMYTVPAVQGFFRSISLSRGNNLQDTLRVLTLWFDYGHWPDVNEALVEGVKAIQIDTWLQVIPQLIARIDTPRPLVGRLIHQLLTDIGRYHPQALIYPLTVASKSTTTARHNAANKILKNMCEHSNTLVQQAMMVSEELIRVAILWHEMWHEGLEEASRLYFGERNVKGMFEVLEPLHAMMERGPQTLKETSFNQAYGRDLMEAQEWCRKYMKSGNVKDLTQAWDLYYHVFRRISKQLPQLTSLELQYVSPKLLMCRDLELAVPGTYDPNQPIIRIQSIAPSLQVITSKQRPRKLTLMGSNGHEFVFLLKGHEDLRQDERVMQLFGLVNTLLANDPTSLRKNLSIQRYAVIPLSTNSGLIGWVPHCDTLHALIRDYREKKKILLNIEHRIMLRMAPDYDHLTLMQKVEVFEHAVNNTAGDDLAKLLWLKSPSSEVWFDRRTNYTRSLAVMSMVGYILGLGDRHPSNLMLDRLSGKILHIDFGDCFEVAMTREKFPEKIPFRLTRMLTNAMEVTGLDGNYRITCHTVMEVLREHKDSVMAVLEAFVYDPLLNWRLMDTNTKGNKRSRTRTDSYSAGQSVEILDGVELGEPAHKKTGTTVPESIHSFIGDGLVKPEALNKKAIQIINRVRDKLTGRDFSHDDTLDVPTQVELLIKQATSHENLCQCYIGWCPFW
T5 sequence (P48736 whole entry): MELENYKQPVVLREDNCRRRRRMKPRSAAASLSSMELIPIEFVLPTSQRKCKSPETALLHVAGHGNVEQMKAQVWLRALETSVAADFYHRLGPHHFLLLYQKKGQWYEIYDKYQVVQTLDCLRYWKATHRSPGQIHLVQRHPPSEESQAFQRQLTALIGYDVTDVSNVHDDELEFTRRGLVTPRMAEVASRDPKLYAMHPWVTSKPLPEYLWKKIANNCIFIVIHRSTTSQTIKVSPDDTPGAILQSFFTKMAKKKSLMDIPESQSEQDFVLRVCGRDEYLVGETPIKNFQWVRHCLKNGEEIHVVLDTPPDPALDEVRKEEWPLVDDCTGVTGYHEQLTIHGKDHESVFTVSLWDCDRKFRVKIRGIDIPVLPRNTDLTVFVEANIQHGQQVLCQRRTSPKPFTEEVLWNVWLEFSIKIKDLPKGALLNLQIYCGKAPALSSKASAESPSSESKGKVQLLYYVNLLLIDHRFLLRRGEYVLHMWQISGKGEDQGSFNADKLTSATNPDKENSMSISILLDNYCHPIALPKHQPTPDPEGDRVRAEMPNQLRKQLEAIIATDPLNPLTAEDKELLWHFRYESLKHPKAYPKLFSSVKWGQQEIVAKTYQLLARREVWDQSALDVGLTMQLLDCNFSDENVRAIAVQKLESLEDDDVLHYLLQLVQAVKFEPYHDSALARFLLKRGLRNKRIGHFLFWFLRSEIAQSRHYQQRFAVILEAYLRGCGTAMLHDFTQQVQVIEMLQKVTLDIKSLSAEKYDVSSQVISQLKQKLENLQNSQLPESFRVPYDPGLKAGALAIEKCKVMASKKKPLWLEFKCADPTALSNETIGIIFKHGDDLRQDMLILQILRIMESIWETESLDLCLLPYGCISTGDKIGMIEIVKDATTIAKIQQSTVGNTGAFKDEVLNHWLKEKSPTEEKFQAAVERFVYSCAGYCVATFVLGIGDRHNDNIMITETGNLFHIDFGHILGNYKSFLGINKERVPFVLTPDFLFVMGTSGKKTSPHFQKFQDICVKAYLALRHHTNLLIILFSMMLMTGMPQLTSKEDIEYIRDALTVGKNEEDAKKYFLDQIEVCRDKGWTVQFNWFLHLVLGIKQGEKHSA

SMILES	IC50 (HDAC1; [6]) [µM]	IC50 (PI3Kα; [8]) [µM]	IC50 [1, 9] [µM]	IC50 [2, 10] [µM]	IC50 [3, 11] [µM]	also measured
CN(Cc1nc2c(N3CCOCC3)nc(-c3ccc(Cl)c(C(F)(F)F)c3)nc2n1C)c1ncc(C(=O)NO)cn1 [CLJ-54, 2-(((2-(-4-chlorine-3-trifluoromethylphenyl)-9-methyl-6-morpholine-9H-purine-8-yl))methyl(methyl)amino)-N-hydroxyl pyrimidine-5-formamide]	< 0.1	> 10	0.1 to 1	0.1 to 1	0.1 to 1	
CN(Cc1nc2c(N3CCOCC3)nc(-c3cc(C(F)(F)F)cc(C(F)(F)F)c3)nc2n1C)c1ncc(C(=O)NO)cn1 [CLJ-56]	< 0.1	> 10	0.01 to 0.1	0.1 to 1	0.1 to 1	
CN(Cc1nc2c(N3CCOCC3)nc(-c3ccc(S(C)(=O)=O)cc3)nc2n1C)c1ncc(C(=O)NO)cn1 [CLJ-57, 2-(((2-(4-methylsulphonylphenyl)-9-methyl-6-morpholine-9H-purine-8-yl))methyl(methyl)amino)-N-hydroxyl pyrimidine-5-formamide]	< 0.001	> 10	0.0001 to 0.01	0.01 to 0.1	0.0001 to 0.01	IC50 (HDAC1; [7]): < 0.001 µM
Cc1ccc(-c2nc(N3CCOCC3)c3nc(CN(C)c4ncc(C(=O)NO)cn4)n(C)c3n2)cc1 [CLJ-60, 2-(((2-(p-methylbenzene)-9-methyl-6-morpholine-9H-purine-8-yl))methyl(methyl)amino)-N-hydroxyl pyrimidine-5-formamide]	< 0.1	> 10	0.0001 to 0.01	0.01 to 0.1	0.0001 to 0.01	
CC(=O)O[C@H]1C(=O)[C@@]2(C)[C@H]([C@H](OC(=O)c3ccccc3)[C@]3(O)C[C@H](OC(=O)[C@H](O)[C@@H](NC(=O)c4ccccc4)c4ccccc4)C(C)=C1C3(C)C)[C@]1(OC(C)=O)CO[C@@H]1C[C@@H]2O [Paclitaxel]						Death [4]: 0/6; Inhibitory rate (%) [4]: 59.19%; Death [5]: 0/6; Inhibitory rate (%) [5]: 77.73%

Continued, in another order:

IC50 (HDAC1; [6]) [µM]	IC50 (PI3Kα; [8]) [µM]	IC50 [1, 9] [µM]	IC50 [2, 10] [µM]	IC50 [3, 11] [µM]	SMILES	also measured
0.1 to 1	< 0.1	0.1 to 1	0.1 to 1	0.1 to 1	CCN(Cc1nc2c(N3CCOCC3)nc(-c3ccc(OC)nc3)nc2n1C)c1ncc(C(=O)NO)cn1 [CLJ-5, N-hydroxy-2-(((2-(6-methoxyl-3-pyridyl)-9-methyl-6-morpholine-9H-purine-8-yl))methyl(ethyl)amino)pyrimidine-5-formamide]	IC50 (HDAC1; [7]): < 0.1 µM; IC50 (PI3Kα; read-out: inhibition value IC50 to the activity of PI3Kα): < 0.1 µM; IC50 (PI3Kβ): 0.1 to 1 µM; IC50 (PI3Kδ): 0.1 to 1 µM; IC50 (PI3Kγ): 0.1 to 1 µM; IC50 (mTOR): 0.1 to 1 µM
0.1 to 1	> 10	> 1	> 1	> 1	CCCN(Cc1nc2c(N3CCOCC3)nc(-c3ccc(OC)nc3)nc2n1C)c1ncc(C(=O)NO)cn1 [CLJ-6, N-hydroxy-2-(((2-(6-methoxyl-3-pyridyl)-9-methyl-6-morpholine-9H-purine-8-yl))methyl(propyl)amino)pyrimidine-5-formamide]	IC50 (PI3Kβ): > 10 µM; IC50 (PI3Kδ): > 10 µM; IC50 (PI3Kγ): > 10 µM; IC50 (mTOR): > 10 µM
< 0.1	> 10	0.0001 to 0.01	0.1 to 1	0.01 to 0.1	COc1ccc(C(F)(F)F)cc1-c1nc(N2CCOCC2)c2nc(CN(C)c3ncc(C(=O)NO)cn3)n(C)c2n1 [CLJ-38, 2-(((2-(2-methoxy-5-trifluoromethylphenyl)-9-methyl-6-morpholine-9H-purine-8-yl))methyl(methyl)amino)-N-hydroxyl pyrimidine-5-formamide]	IC50 [1, 12]: < 0.01 µM; IC50 [2, 13]: > 0.1 µM
< 0.1	> 10	0.0001 to 0.01	0.0001 to 0.01	0.0001 to 0.01	CCNc1ccc(-c2nc(N3CCOCC3)c3nc(CN(C)c4ncc(C(=O)NO)cn4)n(C)c3n2)cc1 [CLJ-48]	IC50 [1, 12]: 0.0001 to 0.01 µM; IC50 [2, 13]: 0.0001 to 0.01 µM; IC50 ([3]; read-out: IC50 to proliferation of A2780s cells): 0.0001 to 0.01 µM
< 0.1	> 10	0.01 to 0.1	0.1 to 1	0.01 to 0.1	CC(C)=CCN(CC=C(C)C)c1ccc(-c2nc(N3CCOCC3)c3nc(CN(C)c4ncc(C(=O)NO)cn4)n(C)c3n2)cc1 [CLJ-49]	
< 0.1	> 10	0.0001 to 0.01	0.01 to 0.1	0.01 to 0.1	CN(Cc1nc2c(N3CCOCC3)nc(-c3ccc(C(F)(F)F)cc3)nc2n1C)c1ncc(C(=O)NO)cn1 [CLJ-55]	
< 0.1	> 10	0.01 to 0.1	0.01 to 0.1	0.01 to 0.1	CN(Cc1nc2c(N3CCOCC3)nc(Cl)nc2n1C)c1ncc(C(=O)NO)cn1 [CLJ-68]	
